Measured values published in patent publication US8894993B2, “Mitochondria-targeted antioxidants” (Natreon Inc., priority 2006, dated 2014).

Key:
[1] = Stability of reduced CoQ10 (CoQH2) by 3,8-(OH)2-DBP at different pH, HPLC; format: physicochemical
Experimental: Two mg of solid CoQ10 (SRL, India), in an airtight vial was dissolved in 1 ml of methanol. After thorough vortexing, 5 mg of solid NaBH4 (Merck India) was added, 1 mg at a time, to the yellow colored solution of CoQ10 in methanol and kept in an ice-bath for a few minutes. The vial was kept shut to avoid contact with air but opened occasionally to avoid generation of pressure inside due to accumulation of hydrogen. After the reduction reaction, a clear colorless solution was obtained to which methanolic solution of 3,8-(OH)2-DBP with a concentration of 1 mg/ml (>90% pure) was added in a ratio of 1:1 to obtain a final concentration of the mixture—reduced CoQ10 […] DBP 0.5 mg/ml. This solution was analyzed by HPLC for reduced CoQ10 content at different time intervals. A control was prepared in similar fashion except that no DBP was added. The pH of the solutions was determined to be 8 using pH paper. To obtain solutions of reduced CoQ10 with pH 7 and pH 3, aliquots of concentrated HCl were added to the methanolic solution of reduced CoQ10 at pH 8. Afterwards, a solution of DBP was added and analysis by HPLC at different time intervals was conducted, as before.
(§1) Mobile phase—Methanol:Acetonitrile:Ethanol 30:30:40
Detection—PDA 290 nm for reduced CoQ10

[2] = Inhibition of CoQ-CoQH2 aberrant metabolite formation during red-ox recycling, HPLC; format: physicochemical; settings: in vitro
Experimental: Methanolic solution of coenzyme Q10 (1 mg/ml) was reduced by NaBH4 to pH 8 when the yellow solution became colorless. About 1 mg of 3,8-(OH)2-DBP was added to the solution and the mixture was analyzed by HPLC at different time intervals (0-80 min). A control CoQ10, without 3,8-(OH)2-DBP, was prepared similarly and analyzed at different time intervals (0-80 min).
Column—NovaPak RP C18 [250×4 mm]
as §1
Detection—PDA 275 nm for CoQ10
Reduced CoQ10 (CoQH2) has a tendency to rapidly autoxidize in the presence of air. […] The aberrant metabolites increased rapidly with time (Table 10).

[3] = system: stress-induced lipid peroxidation of mouse brain; experiment: Stress-induced lipid peroxidation of mouse brain (thiobarbituric acid reaction); format: in vivo, Swiss albino mice; settings: oral each 5 mg/Kg b.w. per day for 5 days, hypoxic stress, control 1.169
Experimental: (§2) Swiss albino mice (20±g) were fed orally with—(a) 3,8-(OH)2-DBP; (b) CoQ10; (c) a combination of 3,8-(OH)2-DBP and CoQ10 and (d) 3,8-(OH)2-DBP and CoQ10 in a clathrated form with fusoms (each 5 mg/Kg b.w.), per day, for 5 days. The animals were subjected to hypoxic stress for 1 hour each day for 3 days from the 3rd day of the experiment. After the stipulated time-period, brain and liver of the animals were collected and mitochondria from the liver were separated as described previously (Liu Y, Deng F, Zhao R and Qu S, Chemosphere, 40(8):851-854, 2000). Lipid peroxidation in brain and liver-mitochondria was estimated by the method of Ohkawa et al. (Ohkawa H, Ohishi N and Yagi K, Assay for lipid peroxides in animal tissues by thiobarbituric acid reaction. Anal. Biochem., 95:351-358, 1979).

[4] = system: stress-induced lipid peroxidation of mouse liver mitochondria; experiment: Stress-induced lipid peroxidation of mouse liver mitochondria (thiobarbituric acid reaction); format: in vivo, Swiss albino mice; settings: oral each 5 mg/Kg b.w. per day for 5 days, hypoxic stress, control 0.495
Experimental: as §2

[5] = system: Blood levels of ATP and energy related indices; experiment: Blood ATP and energy related indices in mice after restraint stress; format: in vivo, Swiss albino mice; settings: 25 mg/Kg p.o. 7 days
Experimental: Swiss albino mice (20±2 g) were fed orally with—(a) 3-OH-DBP and (b) 3,8-(OH)2-DBP (each 25 mg/Kg b.w. per day, for 7 days). In case of the controls, only vehicle (0.8% carboxymethyl cellulose in water) was administered for seven days of the experiment. All the animals of all the groups were subjected to restraint stress (for 60 minutes) on the seventh day of the experiment, 2 hours after drug administration, according to a published method [Figueiredo, H. F., Bodie, B. L., Tauchi, M., Dolgas, C. M. and Herman, J. P. 2003. Endocrinology, 144, 5249-5258]. The model was selected in the present experiment, because restraint stress is a widely used model of acute oxidative stress. Immediately after being exposed to stress, the animals were sacrificed, blood was collected for analysis by HPLC of ATP and related nucleotides [Smolenska, Z., Kaznowska, Z., Zarowny, D., Simmonds, H. A. and Smolenski, R. T. 1999. Rheumatology, 38, 997-1002; Komarova, S. V., Mosharov, E. V., Vitvitsky, V. M. and Ataullakhanov, F. I. 1999. Blood Cell Mol. Dis., 25(13), 170-179; Marquardt, D. L., Gruber, H. E. and Wasserman, S. I. 1984. Proc. Natl. Acad. Sci., 81, 6192-6196], and liver was collected for measurement of superoxide dismutase and catalase activities [Zielinski, S, and Pörtner, H. 2000. Comparative Biochem. Physiol. Part B, 125, 147-[60]. AEC (adenylate energy charge) was calculated according to the method of Atkinson and Walton [Atkinson D E & Walton G M, Adenosine triphosphate conservation in metabolic regulation, J Biol Chem, 242 (1967) 3239] and TAN (total adenine nucleotides) was calculated according to an established method [Spencer M K & Katz A, Role of glycogen in control of glycolysis and IMP formation in human muscle during exercise, Am J Physiol, 260 (1991) E859].

## O=c1oc2cc(O)ccc2c2ccc(O)cc12 [3,8-(OH)2-DBP, 3,8-dihydroxydibenzo-α-pyrone]
[1]; autoxidation of CoQH2, pH 8, 0 min
  Regenerated CoQ10 in presence of 3,8-(OH)2-DBP: 0 µg/mL
[1]; autoxidation of CoQH2, pH 8, 20 min
  Regenerated CoQ10 in presence of 3,8-(OH)2-DBP: 10.63 µg/mL
[1]; autoxidation of CoQH2, pH 8, 40 min
  Regenerated CoQ10 in presence of 3,8-(OH)2-DBP: 37.37 µg/mL
[1]; autoxidation of CoQH2, pH 8, 60 min
  Regenerated CoQ10 in presence of 3,8-(OH)2-DBP: 99.55 µg/mL
[1]; pH 3, 0 hour
  Reduced CoQ10 remaining in presence of DBP: 100.00%
[1]; pH 3, 48 hour
  Reduced CoQ10 remaining in presence of DBP: 79.27%
[1]; pH 3, 72 hour
  Reduced CoQ10 remaining in presence of DBP: 73.91%
[1]; pH 7, 0 hour
  Reduced CoQ10 remaining in presence of DBP: 100.00%
[1]; pH 7, 48 hour
  Reduced CoQ10 remaining in presence of DBP: 10.79%
[1]; pH 7, 72 hour
  Reduced CoQ10 remaining in presence of DBP: 6.33%
[1]; pH 8, 0 min, DBP 0.5 mg/ml
  Reduced CoQ10 remaining in presence of DBP: 100.00%
[1]; pH 8, 40 min, DBP 0.5 mg/ml
  Reduced CoQ10 remaining in presence of DBP: 93.44%
[1]; pH 8, 60 min, DBP 0.5 mg/ml
  Reduced CoQ10 remaining in presence of DBP: 80.21%
[1]; pH 8, 80 min, DBP 0.5 mg/ml
  Reduced CoQ10 remaining in presence of DBP: 66.57%
[1]; pH 8, 100 min, DBP 0.5 mg/ml
  Reduced CoQ10 remaining in presence of DBP: 51.85%
[1]; pH range 3 to 8
  protection of reduced CoQ10 from oxidative degradation, in words: significantly protects
[2]
  aberrant metabolite formation of CoQH2 in the presence of 3,8-(OH)2-DBP, in words: did not form any aberrant metabolite for a long time
[2]; pH 8, 0 minutes
  Relative percentage of aberrant metabolites in presence of 3,8-(OH)2-DBP: 0%
[2]; pH 8, 40 minutes
  Relative percentage of aberrant metabolites in presence of 3,8-(OH)2-DBP: 0%
[2]; pH 8, 80 minutes
  Relative percentage of aberrant metabolites in presence of 3,8-(OH)2-DBP: 0%
[3]
  OD Values at 532 nm (lipid peroxidation): 1.119
[4]
  OD Values at 532 nm (lipid peroxidation): 0.395
[5]; mean ± SEM of 6, control 0.14 ± 0.02
  ADP: 0.09 ± 0.01 µM
[5]; mean ± SEM of 6, control 0.67 ± 0.03
  ATP: 0.64 ± 0.05 µM
[5]; mean ± SEM of 6, control 0.76 ± 0.03
  TAN: 0.76 ± 0.06 µM
[5]; mean ± SEM of 6, control 0.89 ± 0.01
  AEC: 0.90 ± 0.01
[5]; mean ± SEM of 6, control 4.90 ± 0.32
  ATP/ADP ratio: 6.96 ± 0.49
